Patent publication US8487133B2, “Substituted bicyclo [4.1.0] heptane-7-carboxylic acid amides and derivatives thereof as food flavor substances” (Symrise AG, priority 2006, dated 2013)

Columns and labels:
[1] = Sensorial tests of the taste of the compounds (own investigations); assay type: in vivo; details: for cooling effect / salt-intensifying effect: sensorial tests; for intrinsic umami taste: sensorial tests of the compound
From the text: From the taste aspect the use according to the invention of a compound of the Formula (I) which is one of the two enantiomeric compounds of the Formula (IVa),
In this connection the relative configuration of the stereogenic centers is of great importance.

[2] = system: trained panel; assay: Sensorial tests in American beef bouillon / meat broth by trained panel (mouthfeel, comparison with MSG); assay type: in vivo; details: for umami taste compared to other compounds having an umami taste / MSG: American beef bouillon base, 5 ppm (IVc), 2 ppm (B1)+(B2), 0.5 ppm (P1)+(P2) vs 0.05 wt. % MSG (FIG. 1-3)
From the text: This is also illustrated in the accompanying spider diagrams, in which an American beef bouillon as base is compared firstly to such a base containing an addition of 5 ppm of (1R,2S,5R,6S,7R)-2-isopropyl-5-methyl-bicyclo[4.1.0]heptane-7-carboxylic acid ethylamide (IVc) (FIG. 1) or 2 ppm of a mixture of (1S,2S,5R,6R,7S)-2-isopropyl-5-methyl-bicyclo[4.1.0]heptane-7-carboxylic acid cyclobutylamide (B1) and (1R,2S,5R,6S,7R)-2-isopropyl-5-methyl-bicyclo[4.1.0]heptane-7-carboxylic acid cyclobutylamide (B2) (FIG. 2) or 0.5 ppm of a mixture of (1S,2S,5R,6R,7S)-2-isopropyl-5-methyl-bicyclo[4.1.0]heptane-7-carboxylic acid cyclopentylamide (P1) and (1R,2S,5R,6S,7R)-2-isopropyl-5-methyl-bicyclo[4.1.0]heptane-7-carboxylic acid-cyclopentylamide (P2) (FIG. 3) respectively, and secondly with such a base containing an addition of 0.05 wt. % of MSG.
The mean values of the respective scores are shown.
The taste of a 0.5% American beef extract as base (continuous, pale line) was compared on the basis of an evaluation by a panel of trained testers with the taste firstly of such a base to which 5 ppm of (1R,2S,5R,6S,7R)-2-isopropyl-5-methyl-bicyclo[4.1.0]heptane-7-carboxylic acid ethylamide had been added (continuous, dark line), and secondly of such a base to which 0.05 wt. % of MSG had been added (dotted line).
The taste of a 0.5% American beef extract as base (continuous, pale line) was compared on the basis of an evaluation by a panel of trained testers to the taste firstly of such a base to which 2 ppm of a mixture of 1S,2S,5R,6R,7S)-2-isopropyl-5-methyl-bicyclo[4.1.0]heptane-7-carboxylic acid cyclobutylamide (B1) and (1R,2S,5R,6S,7R)-2-isopropyl-5-methyl-bicyclo[4.1.0]heptane-7-carboxylic acid cyclobutylamide (B2) had been added (continuous, dark line), and secondly of such a base to which 0.05 wt. % of MSG had been added (dotted line).
The taste of a 0.5 wt. % American beef extract as base (continuous, pale line) was compared on the basis of an evaluation by a panel of trained testers with the taste firstly of such a base to which 0.5 ppm of a mixture of (1S,2S,5R,6R,7S)-2-Isopropyl-5-methyl-bicyclo[4.1.0]heptane-7-carboxylic acid cyclopentylamide (P1) and (1R,2S,5R,6S,7R)-2-isopropyl-5-methyl-bicyclo[4.1.0]heptane-7-carboxylic acid cyclopentylamide (P2) had been added (continuous, dark line), and secondly of such a base to which 0.05 wt. % of MSG had been added (dotted line).

For `CCNC(=O)[C@@H]1[C@@H]2[C@H]1[C@H](C)CC[C@H]2C(C)C` [(1S,2S,5R,6R,7S)-2-isopropyl-5-methyl-bicyclo[4.1.0]heptane-7-carboxylic acid ethylamide], the cooling effect [1] was “slight” and the intrinsic umami taste [1] was “only moderately”.
With `CCNC(=O)C1C2CC(C)CC(C)C21` (stereo not drawn) [2,4-dimethyl-bicyclo[4.1.0]heptane-7-carboxylic acid ethylamide] the salt-intensifying effect [1] was “slight” and the intrinsic umami taste [1] was “stronger, umami-like”.
For `CC(C)[C@@H]1CC[C@@H](C)[C@H]2[C@H](C(=O)NC3CCCCC3)[C@H]21` [Formula (H1), (1S,2S,5R,6R,7S)-2-isopropyl-5-methyl-bicyclo[4.1.0]heptane-7-carboxylic acid cyclohexylamide], the intrinsic umami taste [1] was “very strongly pronounced”.
With “(1R,2S,5R,6S,7R)-2-isopropyl-5-methyl-bicyclo[4.1.0]heptane-7-carboxylic acid cyclobutylamide/(1S,2S,5R,6R,7S)-2-isopropyl-5-methyl-bicyclo[4.1.0]heptane-7-carboxylic acid cyclobutylamide [mixture of (B1) and (B2)]” the sweetish impression ([1]; in vivo) was “slightly sweetish impression”, the intrinsic umami taste [1] was “very strong umami note” and the “umami taste compared to other compounds having an umami taste / MSG” value [2] was “clear umami taste very similar to sodium glutamate (MSG)”.
For “(1R,2S,5R,6S,7R)-2-isopropyl-5-methyl-bicyclo[4.1.0]heptane-7-carboxylic acid cyclohexylamide/(1S,2S,5R,6R,7S)-2-isopropyl-5-methyl-bicyclo[4.1.0]heptane-7-carboxylic acid cyclohexylamide [mixture of (H1) and (H2)]”, the intrinsic umami taste [1] was “umami note was also detected, which however developed somewhat more slowly”.
For `CCNC(=O)C1C2CCCCC21` (stereo not drawn) [Bicyclo[4.1.0]heptane-7-carboxylic acid N-ethylamide, reference compound], the taste ([1]; in vivo) was “no detectable taste”.
For `CCNC(=O)C1CC1` [cyclopropanecarboxylic acid ethylamide, Cyclopropanecarboxylic acid N-ethylamide, reference compound], the umami taste ([1]; 10 ppm in aqueous solutions) was “very weak umami taste” and the “contribution to the mouthfeel” value ([2]; meat broth/consommé compositions) was “does not make any statistically significant contribution”.
With `CC(C)[C@@H]1CC[C@@H](C)[C@@H]2[C@@H](C(=O)NC3CCC3)[C@@H]21` [Formula (B2), (1R,2S,5R,6S,7R)-2-isopropyl-5-methyl-bicyclo[4.1.0]heptane-7-carboxylic acid-cyclobutylamide] the intrinsic umami taste [1] was “very strongly pronounced”.
For `CCNC(=O)C1C2CCCC(C(C)C)C21` (stereo not drawn) [2-isopropyl-bicyclo[4.1.0]heptane-7-carboxylic acid ethylamide, reference compound], the salt-intensifying effect [1] was “slight” and the intrinsic umami taste [1] was “very slight, umami-like”.
With `CCNC(=O)[C@@H]1[C@@H]2[C@H]1[C@H](C(C)C)CC[C@H]2C` (single isomer, unassigned) [Formula (IVc)] the “intensification of saltiness, sweetness and umami taste of aroma compositions” value ([1]; in vivo) was “intensifies the saltiness, the sweetness and the umami taste”, the cooling effect [1] was “no cooling effect” and the intrinsic umami taste [1] was “very strongly pronounced”. The mouthfeel ([2]; 5 ppm added to 0.5 wt. % American beef bouillon, compared with 0.05 wt. % MSG) was “increased by roughly the same extent as is normally achieved only by the addition of 0.05 wt. % of MSG” and the “umami taste compared to other compounds having an umami taste / MSG” value [2] was “clear umami taste very similar to sodium glutamate (MSG)”.
For `CCNC(=O)C1C2C1[C@H](C)CC[C@H]2C(C)C` (single isomer, unassigned) [mixture of both diastereomers], the cooling effect [1] was “can no longer be detected” and the intrinsic umami taste [1] was “completely dominated by the umami impression of the (1R,2S,5R,6S,7R) isomer”.
In the case of `CCNC(=O)C1C2C(C)CCC(C(C)C)C12` (stereo not drawn) [2-Isopropyl-5-methyl-2-ispropyl-bicyclo[4.1.0]heptane-7-carboxylic acid ethylamide], the sensorial properties ([1]; in vivo) is reported as “particularly strong”.
In the case of `CC(C)[C@@H]1CC[C@@H](C)[C@@H]2[C@@H](C(=O)NC3CCCCC3)[C@@H]21` [Formula (H2), (1R,2S,5R,6S,7R)-2-isopropyl-5-methyl-bicyclo[4.1.0]heptane-7-carboxylic acid-cyclohexylamide], the intrinsic umami taste [1] is reported as “very strongly pronounced”.
In the case of “(1R,2S,5R,6S,7R)-2-isopropyl-5-methyl-bicyclo[4.1.0]heptane-7-carboxylic acid cyclopentylamide/(1S,2S,5R,6R,7S)-2-isopropyl-5-methyl-bicyclo[4.1.0]heptane-7-carboxylic acid cyclopentylamide [mixture of (P1) and (P2)]”, the umami taste ([1]; at very low concentrations) is reported as “very much more intensive and clear” and the “umami taste compared to other compounds having an umami taste / MSG” value [2] is reported as “clear umami taste very similar to sodium glutamate (MSG)”.
In the case of `CC(C)[C@@H]1CC[C@@H](C)[C@H]2[C@H](C(=O)NC3CCC3)[C@H]21` [Formula (B1), (1S,2S,5R,6R,7S)-2-isopropyl-5-methyl-bicyclo[4.1.0]heptane-7-carboxylic acid cyclobutylamide], the intrinsic umami taste [1] is reported as “very strongly pronounced”.
With `CCNC(=O)C1C2C3CCC(C3)C12` (stereo not drawn) [Tricyclo[3.2.1.0^2,4]octane-3-carboxylic acid N-ethylamide] the salt-intensifying effect [1] was “salt-intensifying effect”, the intrinsic umami taste [1] was “distinct umami taste” and the mouthfeel ([2]; 50 ppm in broths/consommés made from American beef extract) was “statistically significant increase”.
